PubChem BioAssay AID330 (DTP/NCI, 2004)
Values joined by “and” are separate entries in the source; they are usually repeats but may differ in a detail not shown here. Identical values can stand only once. Toxic doses and inconclusive results are not listed.

System: P388 leukemia ip, CD2F1 mice, survival T/C
Assay: NCI In Vivo Anticancer Drug Screen. Data for tumor model P388 Leukemia (intraperitoneal) in CD2F1 (CDF1) mice
Settings: endpoint: median survival time, higher = longer survival
Outline: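 Mice carrying the transplanted tumor received test compound or vehicle. Survival was recorded in each group, and the value is the treated-group measurement divided by that of the vehicle-treated control group.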

[1] = dose: 100.0 mg/kg/injection, schedule: Q04DX003 (ip), vehicle: saline with Tween-80
[2] = dose: 200.0 mg/kg/injection, schedule: Q04DX003 (ip), vehicle: saline with Tween-80
[3] = dose: 400.0 mg/kg/injection, schedule: Q04DX003 (ip), vehicle: saline with Tween-80
[4] = dose: 60.0 mg/kg/injection, schedule: Q01DX005 (ip), vehicle: saline with Tween-80
[5] = dose: 120.0 mg/kg/injection, schedule: Q01DX005 (ip), vehicle: saline with Tween-80
[6] = dose: 240.0 mg/kg/injection, schedule: Q01DX005 (ip), vehicle: saline with Tween-80
[7] = dose: 50.0 mg/kg/injection, schedule: Q01DX009 (ip), vehicle: saline with Tween-80
[8] = dose: 100.0 mg/kg/injection, schedule: Q01DX009 (ip), vehicle: saline with Tween-80
[9] = dose: 200.0 mg/kg/injection, schedule: Q01DX009 (ip), vehicle: saline with Tween-80
[10] = dose: 60.0 mg/kg/injection, schedule: Q01DX005 (ip), vehicle: Klucel (hydroxypropylcellulose) (HPC)
[11] = dose: 120.0 mg/kg/injection, schedule: Q01DX005 (ip), vehicle: Klucel (hydroxypropylcellulose) (HPC)
[12] = dose: 240.0 mg/kg/injection, schedule: Q01DX005 (ip), vehicle: Klucel (hydroxypropylcellulose) (HPC)
[13] = dose: 100.0 mg/kg/injection, schedule: Q01DX001 (ip), vehicle: saline
[14] = dose: 200.0 mg/kg/injection, schedule: Q01DX001 (ip), vehicle: saline
[15] = dose: 400.0 mg/kg/injection, schedule: Q01DX001 (ip), vehicle: saline
[16] = dose: 100.0 mg/kg/injection, schedule: Q04DX002 (ip), vehicle: Klucel (hydroxypropylcellulose) (HPC)
[17] = dose: 200.0 mg/kg/injection, schedule: Q04DX002 (ip), vehicle: Klucel (hydroxypropylcellulose) (HPC)
[18] = dose: 400.0 mg/kg/injection, schedule: Q04DX002 (ip), vehicle: Klucel (hydroxypropylcellulose) (HPC)
[19] = dose: 50.0 mg/kg/injection, schedule: Q01DX005 (ip), vehicle: saline with Tween-80
[20] = dose: 100.0 mg/kg/injection, schedule: Q01DX005 (ip), vehicle: saline with Tween-80
[21] = dose: 200.0 mg/kg/injection, schedule: Q01DX005 (ip), vehicle: saline with Tween-80
[22] = dose: 50.0 mg/kg/injection, schedule: Q01DX005 (ip), vehicle: Klucel (hydroxypropylcellulose) (HPC)
[23] = dose: 100.0 mg/kg/injection, schedule: Q01DX005 (ip), vehicle: Klucel (hydroxypropylcellulose) (HPC)
[24] = dose: 25.0 mg/kg/injection, schedule: Q01DX009 (ip), vehicle: saline with Tween-80

CCCCOC(=O)C(C)OC(=O)Nc1cccc(Cl)c1 (centres undefined) was tested, and the T/C [1] was 90 % of control, the T/C [2] was 90 % of control and the T/C [3] was 100 % of control.
In the case of Cc1cc(=O)c2ccc(Cl)c(C)c2[nH]1, the T/C [4] is reported as 110 % of control, the T/C [5] is reported as 93 % of control and the T/C [6] is reported as 103 % of control.
C=CCC1CCCCC1=O (centres undefined) (tested in a mixture with another compound) was tested, and the T/C [7] was 105 % of control, the T/C [8] was 104 % of control and the T/C [9] was 115 % of control.
COC1/C=C/OC2(C)Oc3c(C)c(O)c4c(O)c(c(C5OCCO5)c(O)c4c3C2=O)NC(=O)/C(C)=C\C=C\C(C)C(O)C(C)C(O)C(C)C(OC(C)=O)C1C (centres undefined) was tested, and the T/C (dose: 25.0 mg/kg/injection, schedule: Q04DX003 (ip), vehicle: saline with Tween-80) was 96 % of control, the T/C (dose: 50.0 mg/kg/injection, schedule: Q04DX003 (ip), vehicle: saline with Tween-80) was 96 % of control and the T/C [1] was 96 % of control. For the same molecule, the T/C [2] was 104 % of control.
CN(CCl)S(=O)(=O)c1ccccc1 was tested, and the T/C [8] was 90 % of control, the T/C [9] was 100 % of control and the T/C (dose: 400.0 mg/kg/injection, schedule: Q01DX009 (ip), vehicle: saline with Tween-80) was 105 % of control.
With CCNC(=S)NN the T/C (dose: 3.13 mg/kg/injection, schedule: Q01DX009 (ip), vehicle: saline) was 106 % of control, the T/C (dose: 6.25 mg/kg/injection, schedule: Q01DX009 (ip), vehicle: saline) was 114 % of control and the T/C (dose: 12.5 mg/kg/injection, schedule: Q01DX009 (ip), vehicle: saline) was 105 % of control.
For CCCCCCC(O)CCCCCCCCCCC(=O)O (centres undefined), the T/C [1] was 109 % of control, the T/C [2] was 100 % of control and the T/C [3] was 104 % of control.
In the case of COc1ccc(OC)c(NC(=O)SC(C)C)c1, the T/C [10] is reported as 93 % of control, the T/C [11] is reported as 96 % of control and the T/C [12] is reported as 92 % of control.
Cc1ccc(C(=O)/C(N)=C/c2ccccn2)cc1 was tested, and the T/C [13] was 107 % of control, the T/C [14] was 105 % of control and the T/C [15] was 101 % of control.
For CCOC(=O)Nc1cc(NC(C)/C(=N/O)c2ccccc2)c([N+](=O)[O-])c(N)n1 (centres undefined), the T/C [10] was 157 % of control and 176 % of control, the T/C [11] was 166 % of control and 186 % of control and the T/C [12] was 174 % of control and 180 % of control.
In the case of O=C1SC(Nc2ccccc2)/C(=N\N=C2/C(Nc3ccccc3)SC(=O)N2Cc2ccccc2)N1Cc1ccccc1 (centres undefined), the T/C [16] is reported as 86 % of control, the T/C [17] is reported as 94 % of control and the T/C [18] is reported as 91 % of control.
With CCOC(=O)NC(CC(C)C)C(=O)NC(CC(C)C)C(=O)OC(C)(C)C (centres undefined) the T/C [19] was 98 % of control, the T/C [20] was 99 % of control and the T/C [21] was 100 % of control.
With CCOC(=O)C1CSCN1 (centres undefined) the T/C (dose: 25.0 mg/kg/injection, schedule: Q01DX009 (ip), vehicle: saline) was 97 % of control, the T/C (dose: 50.0 mg/kg/injection, schedule: Q01DX009 (ip), vehicle: saline) was 95 % of control and the T/C (dose: 100.0 mg/kg/injection, schedule: Q01DX009 (ip), vehicle: saline) was 100 % of control. For the same molecule, the T/C (dose: 200.0 mg/kg/injection, schedule: Q01DX009 (ip), vehicle: saline) was 100 % of control.
For c1ccc(CC2CCc3ccccc3/C2=N/OCC2CO2)cc1 (centres undefined), the T/C (dose: 30.0 mg/kg/injection, schedule: Q01DX005 (ip), vehicle: saline with Tween-80) was 101 % of control, the T/C [4] was 97 % of control and the T/C [5] was 98 % of control.
In the case of CCC(=O)C(=O)c1ccc(O)cc1O, the T/C (dose: 50.0 mg/kg/injection, schedule: Q01DX009 (ip), vehicle: Klucel (hydroxypropylcellulose) (HPC)) is reported as 108 % of control, the T/C (dose: 100.0 mg/kg/injection, schedule: Q01DX009 (ip), vehicle: Klucel (hydroxypropylcellulose) (HPC)) is reported as 108 % of control and the T/C (dose: 200.0 mg/kg/injection, schedule: Q01DX009 (ip), vehicle: Klucel (hydroxypropylcellulose) (HPC)) is reported as 105 % of control.
Cc1cccc(Nc2c(C(=O)O)cnc3cc4c(cc23)OCO4)c1C was tested, and the T/C (dose: 30.0 mg/kg/injection, schedule: Q01DX005 (ip), vehicle: Klucel (hydroxypropylcellulose) (HPC)) was 94 % of control, the T/C [10] was 96 % of control and the T/C [11] was 99 % of control and 103 % of control. For the same molecule, the T/C [12] was 111 % of control.
For CCOc1cc2c(cc1Cc1ccc3c(c1)OCO3)OCO2, the T/C [19] was 97 % of control, the T/C [20] was 107 % of control and the T/C [21] was 107 % of control.
In the case of COC(=O)C(CP(C)(C)=O)C(N=C(C)C(F)(F)F)(c1ccccc1)c1ccccc1 (centres undefined), the T/C [22] is reported as 100 % of control, the T/C [23] is reported as 100 % of control and the T/C (dose: 200.0 mg/kg/injection, schedule: Q01DX005 (ip), vehicle: Klucel (hydroxypropylcellulose) (HPC)) is reported as 107 % of control.
In the case of COc1ccc(N=Nc2c(C)nn(C(N)=S)c2C)cc1, the T/C [16] is reported as 93 % of control, the T/C [17] is reported as 92 % of control and the T/C [18] is reported as 94 % of control.
For O=C(O)CNC(=O)C(Cc1c[nH]c2ccccc12)NC(=O)OCc1ccccc1 (centres undefined), the T/C [19] was 95 % of control, the T/C [20] was 94 % of control and the T/C [21] was 91 % of control.
For NC(Cc1ccc(O)cc1)c1nn[nH]n1 (centres undefined), the T/C [24] was 114 % of control, the T/C [7] was 100 % of control and the T/C [8] was 99 % of control.
With c1ccc(OP2(Oc3ccccc3)=NP(Oc3ccccc3)(Oc3ccccc3)=NP(Oc3ccccc3)(Oc3ccccc3)=NP(Oc3ccccc3)(Oc3ccccc3)=N2)cc1 the T/C [22] was 97 % of control and the T/C [23] was 91 % of control.
CCCCNCCC(SSSC(CCNCCCC)c1ccc(Cl)cc1)c1ccc(Cl)cc1 (centres undefined) was tested, and the T/C (dose: 6.25 mg/kg/injection, schedule: Q01DX009 (ip), vehicle: saline with Tween-80) was 100 % of control, the T/C (dose: 12.5 mg/kg/injection, schedule: Q01DX009 (ip), vehicle: saline with Tween-80) was 100 % of control and the T/C [24] was 90 % of control.
For Cc1ccc2nc3c4ccccc4c4ccccc4c3nc2c1C, the T/C [19] was 94 % of control, the T/C [20] was 86 % of control and the T/C [21] was 89 % of control.
For CC1OC(c2ccc3c(c2O)C(=O)C2=C(C3=O)[C@H]3OC(=O)C[C@H]3O[C@@H]2C)CC(N(C)C)C1O (some centres undefined), the T/C (dose: 1.5 mg/kg/injection, schedule: Q01DX005 (ip), vehicle: other) was 91 % of control, the T/C (dose: 750.0 micrograms/kg/injection, schedule: Q01DX005 (ip), vehicle: other) was 86 % of control and the T/C (dose: 1500.0 micrograms/kg/injection, schedule: Q01DX005 (ip), vehicle: other) was 90 % of control. For the same molecule, the T/C (dose: 3000.0 micrograms/kg/injection, schedule: Q01DX005 (ip), vehicle: other) was 88 % of control.
For NC(=S)c1cccc(/C=N/Nc2ccc([N+](=O)[O-])cc2[N+](=O)[O-])c1, the T/C [13] was 99 % of control, the T/C [14] was 105 % of control and the T/C [15] was 96 % of control.
COc1cccc(/C=N/NC(=O)CNC(=O)Nc2cccc([N+](=O)[O-])c2)c1OC was tested, and the T/C [4] was 90 % of control, the T/C [5] was 89 % of control and 96 % of control and the T/C [6] was 99 % of control and 100 % of control.
